Measurements reported in US9302999B2, “Substituted triazoles as herbicides” (E. I. DU PONT DE NEMOURS AND COMPANY, priority 2012, dated 2016).

Tests used:
Format in all cases: in vivo
[1] = tested on: panicum, fall (fall panicum, Panicum dichotomiflorum); assay: Test E pre-/postemergence: panicum, fall; settings: scale 0 to 100
Source text: (§1) Seeds of plant species selected from corn (Zea mays), soybean (Glycine max), velvetleaf (Abutilon theophrasti), lambsquarters (Chenopodium album), poinsettia, wild (wild poinsettia, Euphorbia heterophylla), pigweed, palmer (palmer pigweed, Amaranthus palmeri), waterhemp (common waterhemp, Amaranthus rudis), smartweed (ladysthumb smartweed, Polygonum persicaria), surinam grass (Brachiaria decumbens), crabgrass, large (large crabgrass, Digitaria sanguinalis), crabgrass, Brazil (Brazilian crabgrass, Digitaria horizontalis), panicum, fall (fall panicum, Panicum dichotomiflorum), foxtail, giant (giant foxtail, Setaria faberii), foxtail, green (green foxtail, Setaria viridis), goosegrass (Eleusine indica), johnsongrass (Sorghum halepense), ragweed (common ragweed, Ambrosia elation), barnyardgrass (Echinochloa crus-galli), sandbur (southern sandbur, Cenchrus echinatus), arrowleaf sida (Sida rhombifolia), ryegrass, Italian (Italian ryegrass, Lolium multiflorum), dayflower, (VA) (Virginia dayflower, Commelina virginica), field bindweed (Convolvulus arvensis), cocklebur (common cocklebur, Xanthium strumarium), morningglory (Ipomoea coccinea), nightshade (eastern black nightshade, Solanum ptycanthum), kochia (Kochia scoparia), nutsedge, yellow (yellow nutsedge, Cyperus esculentus) and beggarticks (hairy beggarticks, Bidens pilosa) were planted into a silt loam soil and treated preemergence with test chemicals formulated in a non-phytotoxic solvent mixture which included a surfactant. At the same time, plants selected from these crop and weed species were planted in pots containing a growing medium comprising spaghnum peat moss, vermiculite, wetting agent and starter nutrients and treated with postemergence applications of some of the test chemicals formulated in the same manner. Plants ranged in height from 2 to 18 cm for postemergence treatments (1- to 4-leaf stage).
(§2) Treated plants and controls were maintained in a greenhouse for 14 to 21 days, after which time all species were compared to controls and visually evaluated. Plant response ratings, summarized in Table E, are based on a scale of 0 to 100 where 0 is no effect and 100 is complete control. A dash (-) response means no test result.

[2] = tested on: foxtail, green (green foxtail, Setaria viridis); assay: Test E pre-/postemergence: foxtail, green; settings: Preemergence, scale 0 to 100
Source text: as §1, §2

[3] = tested on: johnsongrass (Sorghum halepense); assay: Test E pre-/postemergence: johnsongrass; settings: Preemergence, scale 0 to 100
Source text: as §1, §2

[4] = tested on: goosegrass (Eleusine indica); assay: Test E pre-/postemergence: goosegrass; settings: Preemergence, scale 0 to 100
Source text: as §1, §2

[5] = tested on: nightshade (eastern black nightshade, Solanum ptycanthum); assay: Test E pre-/postemergence: nightshade; settings: Preemergence, scale 0 to 100
Source text: as §1, §2

[6] = tested on: arrowleaf sida (Sida rhombifolia); assay: Test E pre-/postemergence: arrowleaf sida; settings: scale 0 to 100
Source text: as §1, §2

[7] = tested on: surinam grass (Brachiaria decumbens); assay: Test E pre-/postemergence: surinam grass; settings: Preemergence, scale 0 to 100
Source text: as §1, §2

[8] = tested on: morningglory (Ipomoea coccinea); assay: Test E pre-/postemergence: morningglory; settings: Preemergence, scale 0 to 100
Source text: as §1, §2

[9] = tested on: sandbur (southern sandbur, Cenchrus echinatus); assay: Test E pre-/postemergence: sandbur; settings: scale 0 to 100
Procedure, shortened: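 Visual injury scored 0–100 (0 no effect, 100 complete control) against controls after 14 to 21 days in greenhouse. Compounds formulated in surfactant-containing non-phytotoxic solvent, applied pre-emergence to seeded silt loam or post-emergence to 1- to 4-leaf plants in peat-based medium.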

corn (Zea mays) = assay: Test E pre-/postemergence: corn; settings: scale 0 to 100
Source text: as §1, §2

[10] = tested on: lambsquarters (Chenopodium album); assay: Test E pre-/postemergence: lambsquarters; settings: Preemergence, scale 0 to 100
Source text: as §1, §2

Cc1nn(-c2ccc(C(F)(F)F)cc2)nc1Oc1ccnc(C(F)(F)F)c1 [Compound 120]
Plant response rating: Panicum, Fall ([1]; Postemergence, 8 g ai/ha): 5
Plant response rating: Panicum, Fall ([1]; Postemergence, 16 g ai/ha): 10
Plant response rating: Panicum, Fall ([1]; Postemergence, 31 g ai/ha): 10
Plant response rating: Panicum, Fall ([1]; Postemergence, 62 g ai/ha): 20
Plant response rating: Panicum, Fall ([1]; Postemergence, 125 g ai/ha): 25
Plant response rating: Panicum, Fall ([1]; Preemergence, 16 g ai/ha): 95
Plant response rating: Panicum, Fall ([1]; Preemergence, 31 g ai/ha): 95
Plant response rating: Panicum, Fall ([1]; Preemergence, 62 g ai/ha): 100
Plant response rating: Panicum, Fall ([1]; Preemergence, 125 g ai/ha): 100
Plant response rating: Panicum, Fall ([1]; Preemergence, 250 g ai/ha): 100
Plant response rating: Foxtail, Green ([2]; 16 g ai/ha): 15
Plant response rating: Foxtail, Green ([2]; 31 g ai/ha): 85
Plant response rating: Foxtail, Green ([2]; 62 g ai/ha): 100
Plant response rating: Foxtail, Green ([2]; 125 g ai/ha): 100
Plant response rating: Foxtail, Green ([2]; 250 g ai/ha): 100
Plant response rating: Johnsongrass ([3]; 16 g ai/ha): 15
Plant response rating: Johnsongrass ([3]; 31 g ai/ha): 15
Plant response rating: Johnsongrass ([3]; 62 g ai/ha): 15
Plant response rating: Johnsongrass ([3]; 125 g ai/ha): 35
Plant response rating: Johnsongrass ([3]; 250 g ai/ha): 65
Plant response rating: Goosegrass ([4]; 16 g ai/ha): 95
Plant response rating: Goosegrass ([4]; 31 g ai/ha): 100
Plant response rating: Goosegrass ([4]; 62 g ai/ha): 100
Plant response rating: Goosegrass ([4]; 125 g ai/ha): 100
Plant response rating: Goosegrass ([4]; 250 g ai/ha): 100
Plant response rating: Nightshade ([5]; 16 g ai/ha): 0
Plant response rating: Nightshade ([5]; 31 g ai/ha): 0
Plant response rating: Nightshade ([5]; 62 g ai/ha): 80
Plant response rating: Nightshade ([5]; 125 g ai/ha): 98
Plant response rating: Nightshade ([5]; 250 g ai/ha): 100
Plant response rating: Arrowleaf Sida ([6]; Postemergence, 8 g ai/ha): 30
Plant response rating: Arrowleaf Sida ([6]; Postemergence, 16 g ai/ha): 40
Plant response rating: Arrowleaf Sida ([6]; Postemergence, 31 g ai/ha): 40
Plant response rating: Arrowleaf Sida ([6]; Postemergence, 62 g ai/ha): 50
Plant response rating: Arrowleaf Sida ([6]; Postemergence, 125 g ai/ha): 50
Plant response rating: Arrowleaf Sida ([6]; Preemergence, 16 g ai/ha): 0
Plant response rating: Arrowleaf Sida ([6]; Preemergence, 31 g ai/ha): 0
Plant response rating: Arrowleaf Sida ([6]; Preemergence, 62 g ai/ha): 0
Plant response rating: Arrowleaf Sida ([6]; Preemergence, 125 g ai/ha): 15
Plant response rating: Arrowleaf Sida ([6]; Preemergence, 250 g ai/ha): 50
Plant response rating: Surinam Grass ([7]; 16 g ai/ha): 0
Plant response rating: Surinam Grass ([7]; 31 g ai/ha): 35
Plant response rating: Surinam Grass ([7]; 62 g ai/ha): 35
Plant response rating: Surinam Grass ([7]; 125 g ai/ha): 90
Plant response rating: Surinam Grass ([7]; 250 g ai/ha): 100
Plant response rating: Morningglory ([8]; 16 g ai/ha): 0
Plant response rating: Morningglory ([8]; 31 g ai/ha): 30
Plant response rating: Morningglory ([8]; 62 g ai/ha): 35
Plant response rating: Morningglory ([8]; 125 g ai/ha): 60
Plant response rating: Morningglory ([8]; 250 g ai/ha): 60
Plant response rating: Sandbur ([9]; Postemergence, 8 g ai/ha): 10
Plant response rating: Sandbur ([9]; Postemergence, 16 g ai/ha): 10
Plant response rating: Sandbur ([9]; Postemergence, 31 g ai/ha): 20
Plant response rating: Sandbur ([9]; Postemergence, 62 g ai/ha): 30
Plant response rating: Sandbur ([9]; Postemergence, 125 g ai/ha): 35
Plant response rating: Sandbur ([9]; Preemergence, 16 g ai/ha): 5
Plant response rating: Sandbur ([9]; Preemergence, 31 g ai/ha): 5
Plant response rating: Sandbur ([9]; Preemergence, 62 g ai/ha): 5
Plant response rating: Sandbur ([9]; Preemergence, 125 g ai/ha): 20
Plant response rating: Sandbur ([9]; Preemergence, 250 g ai/ha): 75
Plant response rating: Corn (corn (Zea mays); Postemergence, 8 g ai/ha): 10
Plant response rating: Corn (corn (Zea mays); Postemergence, 16 g ai/ha): 10
Plant response rating: Corn (corn (Zea mays); Postemergence, 31 g ai/ha): 10
Plant response rating: Corn (corn (Zea mays); Postemergence, 62 g ai/ha): 20
Plant response rating: Corn (corn (Zea mays); Postemergence, 125 g ai/ha): 20
Plant response rating: Corn (corn (Zea mays); Preemergence, 16 g ai/ha): 0
Plant response rating: Corn (corn (Zea mays); Preemergence, 62 g ai/ha): 5
Plant response rating: Corn (corn (Zea mays); Preemergence, 125 g ai/ha): 10
Plant response rating: Corn (corn (Zea mays); Preemergence, 250 g ai/ha): 10
Plant response rating: Lambsquarters ([10]; 16 g ai/ha): 0
Plant response rating: Lambsquarters ([10]; 31 g ai/ha): 50
Plant response rating: Lambsquarters ([10]; 62 g ai/ha): 90
Plant response rating: Lambsquarters ([10]; 125 g ai/ha): 98
Plant response rating: Lambsquarters ([10]; 250 g ai/ha): 98
